Like-named read-outs stand apart in the source and are kept apart here. Each block holds one molecule with its values, some of them ahead of it.
Assays:
[1] = target: T1, peripheral benzodiazepine binding site (Rattus norvegicus, UniProt P16257); assay: In vitro binding, [3H]-PK11195, kidney membrane preparation; settings: [3H]-PK11195 (2 nM), 4° C., 1 h
T1 construct: diluted kidney membrane preparation (200 μg); from tissue; host or cells: kidney membrane preparation
Description: Non-specific binding was determined with PK11195 (10 μM).
(§1) Non-specific binding was determined with Flumazenil (20 μM). In both cases, incubations were terminated by rapid filtration through Whatman GF/B glass fibre. Filters were immediately washed 3 times with 5 mL ice-cold 50 mM Tris/HCl at pH 7.4. Filters were counted in a β-scintillation counter (Packard) to measure the amount of bound radioactivity. The IC50 of the compounds for the peripheral benzodiazepine binding site and the central benzodiazepine receptor were calculated using Kell 6 software.

[2] = target: central benzodiazepine receptors; assay: In vitro binding, [3H]-Flumazenil, brain cortex membrane preparation; settings: for IC50: [3H]-Flumazenil (2 nM), 25° C., 45 min, read-out: CBR IC50
Description: as §1

[3] = LogP HPLC
[4] = Biodistribution of 18F-labelled tracers in rats; assay type: in vivo; settings: SD rats; for Biodistribution: Bone / Biodistribution: Kidney / Biodistribution: Olfactory bulbs / Biodistribution: Adrenals: decay correction not stated
Summary of the method: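 Sprague-Dawley rats received 18F tracer, and brain and peripheral tissues were analysed at 15 and 30 min and 1 and 4 h post-injection. For specificity, rats were pretreated 5 min beforehand with PK11195 or Ro 5-4864 (PBR) or flumazenil (CBR), each at 1 mg/kg.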

[5] = target: T2, peripheral benzodiazepine receptors (Rattus norvegicus, UniProt P16257); assay: In vivo blocking / competition of tracer uptake by pre-treatment with PBR and CBR ligands; settings: rats
T2 construct: high uptake in the tissues which have known PBR sites; from tissue; host or cells: organs of living SD rats (brain and peripheral tissues), in vivo
Description: The criteria for significance were **p<0.01 (highly significant) and *p<0.05 (significant). No stars implies not statistical difference from normals or controls.
The biodistribution of PBR132* was undertaken in SD rats and analysis up to 4 h p.i. in the brain and peripheral tissues was performed. The specificity and selectivity of the tracer were assessed by pre-treatment with PBR and Central benzodiazepine receptor (CBR) specific ligands (1 mg/kg) 5 min prior to injection of PBR132*.
The biodistribution of PBR 147* was performed in SD rats and brain and peripheral tissues were analysised at 15, 30 min, 1, and 4 h p.i. The specificity and selectivity of the tracer was assessed by pre-treatment of the animals with the PBR ligands PK11195 and Ro 5-4864 and with Flumazenil for CBR at 1 mg/kg 5 min prior to injection of PBR 147*
The biodistribution of PBR102* and PBR111* were performed in SD rats and brain and peripheral tissues analysed at 15, 30 min, 1, and 4 h p.i. The specificity and selectivity of the tracers were assessed by pre-treatment with the PBR ligands PK11195 and Ro 5-4864 and with Flumazenil for CBR at 1 mg/kg 5 min prior to injection of the corresponding tracers.
The specificity and selectivity of the tracers were assessed by pre-treatment with the PBR ligands PK11195 and Ro 5-4864 and with Flumazenil for CBR at 1 mg/kg 5 min prior to injection of the corresponding tracers.

- IC50 ([1]; read-out: PBR IC50): 800 nM
- IC50 [2]: 2620 nM
- chromatographic logP [3]: 4.23 ± 0.13
SMILES: CC(C)(C)c1ccc(-c2nc3ccc(F)nn3c2CNC(=O)c2ccccc2)cc1 [PBR 139, N-((2-(4-tert-butylphenyl)-6-fluoroimidazo[1,2-b]pyridazin-3-yl)methyl)benzamide]

SMILES: CN(C(=O)Cc1c(-c2ccc(OCCF)cc2)nc2c(Cl)cc(Cl)cn12)c1ccccc1 [PBR 143, 2-(2-(4-(2-fluoroethoxy)phenyl)-6,8-dichloroimidazo[1,2-a]pyridin-3-yl)-N-methyl-N-phenylacetamide]
- IC50 ([1]; PBR IC50 (nM)): 6.4 nM
- CBR, % @ 10^−5M ([2]; @ 10^−5M, [3H]-Flumazenil): 50% @ 10^−5M
- chromatographic logP [3]: 3.85 ± 0.12

SMILES: CN(C(=O)Cc1c(-c2ccc(OCCCF)cc2)nc2c(Cl)cc(Cl)cn12)c1ccccc1 [PBR 147, 2-(2-(4-(3-fluoropropoxy)phenyl)-6,8-dichloroimidazo[1,2-a]pyridin-3-yl)-N-methyl-N-phenylacetamide]
- Biodistribution: Bone ([4]; 15 min): 1 % ID/g
- Biodistribution: Kidney ([4]; 15 min): 5 % ID/g
- Biodistribution: Olfactory bulbs ([4]; 15 min): 0.66 % ID/g
- Heart uptake maintained throughout the experiment ([4]; 15 min to 4 h): 7%
- Biodistribution: Adrenals ([4]; 30 min): 9 % ID/g
- Biodistribution: Adrenals ([4]; 4 hours): 11 % ID/g
- Biodistribution: Bone ([4]; 4 hours): 2.9 % ID/g
- Biodistribution: Kidney ([4]; 4 hours): 3.6 % ID/g
- Biodistribution: Olfactory bulbs ([4]; 4 hours): 0.26 % ID/g
- Blood activity level / concentration in the blood over the 4 h study period ([4]; throughout 15 min to 4 h): significantly lower
- Tracer uptake after pre-treatment with PK 11195 ([5]; PK 11195 1 mg/kg 5 min prior to tracer, PBR-expressing tissues (brain/peripheral organs, adrenals apart)): decreased
- Tracer uptake in the adrenals after pre-treatment with PK 11195 ([5]; PK 11195 1 mg/kg 5 min prior to tracer, adrenals): increase
- Tracer uptake after pre-treatment with Ro 5-4864 ([5]; Ro 5-4864 1 mg/kg 5 min prior to tracer, PBR-expressing tissues (brain/peripheral organs, adrenals apart)): decreased
- Tracer uptake in the adrenals after pre-treatment with Ro 5-4864 ([5]; Ro 5-4864 1 mg/kg 5 min prior to tracer, adrenals): increase
- Tracer uptake after pre-treatment with flumazenil (central benzodiazepine ligand) ([5]; flumazenil 1 mg/kg 5 min prior to tracer, brain or peripheral organs): no effect
- IC50 ([1]; PBR IC50 (nM)): 7.4 nM
- IC50 [2]: 4090 nM
- chromatographic logP [3]: 4.31 ± 0.13

SMILES: CN(C(=O)Cc1c(-c2ccc(OCCF)cc2)nc2ccc(Cl)cn12)c1ccccc1 [PBR 149, 2-(2-(4-(2-fluoroethoxy)phenyl)-6-chloroimidazo[1,2-a]pyridin-3-yl)-N-methyl-N-phenylacetamide]
- IC50 ([1]; PBR IC50 (nM)): 4.7 nM
- IC50 [2]: 357 nM
- chromatographic logP [3]: 3.57 ± 0.11
